Here are results for four compounds from ChEMBL document CHEMBL5120787, “Selaginellin Inhibits Melanogenesis via the MAPK Signaling Pathway” (J Nat Prod, 2022).

Activity calls are given as the source filed them. The rule behind the calls is not given here.

Data set [1] concerns B16-F10. Put plainly: Anti-melanogenic activity against mouse B16-F10 cells assessed as decrease in TYR protein level at 25 to 100 nM measured after 48 hrs by Western blot analysis. It is filed as functional, cell-based. The following applies: dose 25-100 nM. On the technique in general: In western blotting, separated proteins are transferred to a membrane and probed.
Data set [2] relates to Melan-a. Put plainly: Anti-melanogenic activity against mouse Melan-a cells assessed as alpha-MSH-induced decrease in Tyr activity at 0.01 to 10 uM incubated for 48 hrs by RBFP based fluorescence microscope analysis. It is filed as functional, cell-based. The following applies: dose 0.01-10 µM.
In data set [3] the test system is Fibroblast. Put plainly: Cytotoxicity against human Fibroblast assessed as reduction in cell viability upto 10 uM measured after 48 to 72 hrs by MTT assay. It is filed as toxicity, cell-based. The following applies: time 48-72 hrs. On the technique in general: Formazan colour is commonly taken as a measure of viable cells.
For data set [4], the system named is B16-F10. Put plainly: Anti-melanogenic activity against mouse B16-F10 cells assessed as decrease in melanin content at 25 to 100 nM incubated for 48 hrs by Fontana-Masson staining based inverted microscopic analysis. The following applies: dose 25-100 nM. It is filed as functional, cell-based.
Data set [5] relates to HaCaT. Put plainly: Anti-melanogenic activity against UVB-induced human HaCaT cells assessed as decrease in LIF protein level at 10 uM incubated for 24 hrs by Western blot analysis. It is filed as functional, cell-based.
For data set [6], the system named is Fibroblast. Put plainly: Anti-melanogenic activity against UVB-induced human fibroblast cells assessed as inhibition of SCF mRNA expression at 10 uM incubated for 24 hrs by qRT-PCR analysis. The class given is functional, cell-based. (In general: In qPCR the cycle at which signal appears reflects the starting amount.)
For data set [7], the system named is B16-F10. Put plainly: Inhibition of MAPK signaling pathway in mouse B16-F10 cells assessed as decrease in phosphorylated ERK at 25 to 100 nM for 48 hrs by Western blot analysis. The class given is cell-based. The following applies: dose 25-100 nM.
The test system of data set [8] is Melan-a. Put plainly: Anti-melanogenic activity against mouse Melan-a cells assessed as decrease in alpha-MSH-induced Tyr activity at 0.01 to 10 uM incubated for 48 hrs. It is filed as functional, cell-based. The following applies: dose 0.01-10 µM.
For data set [9], the system named is MNT-1. Put plainly: Anti-melanogenic activity against human MNT-1 cells assessed as decrease in melanin content at 10 uM incubated for 48 hrs by Fontana-Masson staining based microscopic analysis. It is filed as functional, cell-based.
For data set [10], the system named is MNT-1. Put plainly: Anti-melanogenic activity against UVB-induced human MNT-1 cells cocultured with 24 hrs human fibroblast cells supernatant assessed as decrease in melanin content at 10 uM incubated for 48 hrs by Fontana-Masson staining based microscopic analysis. It is filed as functional, cell-based. The following applies: time 72.0 hrs.
Data set [11] relates to B16-F10. Put plainly: Anti-melanogenic activity against mouse B16-F10 cells assessed as decrease in RAB27A protein level at 25 to 100 nM measured after 48 hrs by Western blot analysis. The following applies: dose 25-100 nM. It is filed as functional, cell-based.
The subject of data set [12] is HaCaT. Put plainly: Anti-melanogenic activity against UVB-induced human HaCaT cells assessed as inhibition of LIF mRNA expression at 10 uM incubated for 24 hrs by qRT-PCR analysis. It is filed as functional, cell-based.
The test system of data set [13] is Melan-a. Put plainly: Anti-melanogenic activity against mouse Melan-a cells assessed as decrease in alpha-MSH-induced melanin content at 0.01 to 10 uM incubated for 48 hrs by Fontana-Masson staining based inverted microscopic analysis. It is filed as functional, cell-based. The following applies: dose 0.01-10 µM.
Data set [14] has as its system HaCaT. Put plainly: Anti-melanogenic activity against UVB-induced human HaCaT cells assessed as decrease in SCF protein level at 10 uM incubated for 24 hrs by Western blot analysis. It is filed as functional, cell-based.
Data set [15] concerns B16-F10. Put plainly: Anti-melanogenic activity against mouse B16-F10 cells assessed as decrease in MITF protein level at 25 to 100 nM measured after 48 hrs by Western blot analysis. The following applies: dose 25-100 nM. The class given is functional, cell-based.
For data set [16], the system named is B16-F10. Put plainly: Anti-melanogenic activity against mouse B16-F10 cells assessed as decrease in […] at 25 to 100 nM incubated for 48 hrs. The following applies: dose 25-100 nM. The class given is functional, cell-based.
Data set [17] relates to Fibroblast. Put plainly: Anti-melanogenic activity against UVB-induced human fibroblast cells assessed as inhibition of LIF mRNA expression at 10 uM incubated for 24 hrs by qRT-PCR analysis. The class given is functional, cell-based.
Data set [18] relates to B16-F10. Put plainly: Inhibition of MAPK signaling pathway in mouse B16-F10 cells assessed as decrease in phosphorylated p38 at 25 to 100 nM for 48 hrs by Western blot analysis. The class given is cell-based. The following applies: dose 25-100 nM.
Data set [19] concerns B16-F10. Put plainly: Anti-melanogenic activity against mouse B16-F10 cells at 50 nM. The class given is functional, cell-based.
For data set [20], the system named is B16-F10. Put plainly: Cytotoxicity against mouse B16-F10 cells assessed as reduction in cell viability upto 10 uM measured after 48 to 72 hrs by MTT assay. It is filed as toxicity, cell-based. The following applies: b16-f10, 10 µM, time 48-72 hrs.
The test system of data set [21] is B16-F10. Put plainly: Inhibition of MAPK signaling pathway in mouse B16-F10 cells assessed as decrease in phosphorylated JNK at 25 to 100 nM for 48 hrs by Western blot analysis. The following applies: dose 25-100 nM. It is filed as cell-based.
Data set [22] deals with MNT-1. Put plainly: Anti-melanogenic activity against UVB-induced human MNT-1 cells cocultured with 24 hrs human HaCaT cells supernatant assessed as decrease in melanin content at 10 uM incubated for 48 hrs by Fontana-Masson staining based microscopic analysis. The class given is functional, cell-based. The following applies: time 72.0 hrs.
Data set [23] concerns MNT-1. Put plainly: Cytotoxicity against human MNT-1 cells assessed as reduction in cell viability upto 10 uM measured after 48 to 72 hrs by MTT assay. It is filed as toxicity, cell-based. The following applies: mnt-1, 10 µM, time 48-72 hrs.
The test system of data set [24] is HaCaT. Put plainly: Cytotoxicity against human HaCaT cells assessed as reduction in cell viability upto 10 uM measured after 48 to 72 hrs by MTT assay. The class given is toxicity, cell-based. The following applies: time 48-72 hrs.
Data set [25] concerns B16-F10. Put plainly: Anti-melanogenic activity against mouse B16-F10 cells assessed as decrease in […] at 25 to 100 nM incubated for 48 hrs by RBFP based fluorescence microscope analysis. The class given is functional, cell-based. The following applies: dose 25-100 nM.
A short description of data set [26]: Cytotoxicity against mouse Melan-a cells assessed as reduction in cell viability upto 10 uM measured after 48 to 72 hrs by MTT assay. The class given is toxicity, cell-based. The following applies: time 48-72 hrs.
Data set [27] concerns the target Mushroom tyrosinase (Agaricus bisporus, UniProt O42713+Q00024+C7FF04+C7FF05). Put plainly: Inhibition of mushroom tyrosinase using L-DOPA as substrate preincubated with substrate for 10 mins followed by addition of enzyme and measured for 10 mins.
Data set [28] relates to Fibroblast. Put plainly: Anti-melanogenic activity against UVB-induced human fibroblast cells assessed as decrease in SCF protein level at 10 uM incubated for 24 hrs by Western blot analysis. It is filed as functional, cell-based.
Data set [29] concerns B16-F10. Put plainly: Anti-melanogenic activity against mouse B16-F10 cells assessed as decrease in TRP2 protein level at 25 to 100 nM measured after 48 hrs by Western blot analysis. It is filed as functional, cell-based. The following applies: dose 25-100 nM.
For data set [30], the system named is B16-F10. Put plainly: Anti-melanogenic activity against mouse B16-F10 cells assessed as decrease in TRP1 protein level at 25 to 100 nM measured after 48 hrs by Western blot analysis. It is filed as functional, cell-based. The following applies: dose 25-100 nM.
Data set [31] has as its system Fibroblast. Put plainly: Anti-melanogenic activity against UVB-induced human fibroblast cells assessed as decrease in LIF protein level at 10 uM incubated for 24 hrs by Western blot analysis. It is filed as functional, cell-based.
In data set [32] the test system is HaCaT. Put plainly: Anti-melanogenic activity against UVB-induced human HaCaT cells assessed as inhibition of SCF mRNA expression at 10 uM incubated for 24 hrs by qRT-PCR analysis. The class given is functional, cell-based.
Data set [33] is filed under the species Danio rerio. Put plainly: Inhibition of melanogenesis in zebra fish embryos assessed as decrease in melanin granule density at 10 to 50 uM measured upto 6 days by inverted microscope analysis. The following applies: dose 10-50 µM, time <= 6.0 day. The class given is functional.
Data set [34] deals with MNT-1. Put plainly: Anti-melanogenic activity against human MNT-1 cells cocultured with 24 hrs compound pretreated human fibroblast cells supernatant assessed as inhibition of LIF protein expression at 20 uM and measured after 48 hrs by Western blot analysis. It is filed as functional, cell-based. The following applies: time 72.0 hrs.
Data set [35] relates to MNT-1. Put plainly: Anti-melanogenic activity against human MNT-1 cells cocultured with 24 hrs compound pretreated human HaCaT cells supernatant assessed as inhibition of SCF mRNA expression at 20 uM and measured after 48 hrs by qRT-PCR analysis. The following applies: time 72.0 hrs. The class given is functional, cell-based.
Data set [36] relates to MNT-1. Put plainly: Anti-melanogenic activity against human MNT-1 cells cocultured with 24 hrs compound pretreated human fibroblast cells supernatant assessed as inhibition of SCF protein expression at 20 uM and measured after 48 hrs by Western blot analysis. The following applies: time 72.0 hrs. It is filed as functional, cell-based.
Data set [37] deals with MNT-1. Put plainly: Anti-melanogenic activity against human MNT-1 cells cocultured with 24 hrs compound pretreated human HaCaT cells supernatant assessed as inhibition of SCF protein expression at 20 uM and measured after 48 hrs by Western blot analysis. The class given is functional, cell-based. The following applies: time 72.0 hrs.
Data set [38] concerns MNT-1. Put plainly: Anti-melanogenic activity against human MNT-1 cells cocultured with 24 hrs compound pretreated human fibroblast cells supernatant assessed as decrease in melanin content at 20 uM and measured after 48 hrs by Fontana-Masson staining based microscopic analysis. It is filed as functional, cell-based. The following applies: time 72.0 hrs.
Data set [39] relates to MNT-1. Put plainly: Anti-melanogenic activity against human MNT-1 cells cocultured with 24 hrs compound pretreated human HaCaT cells supernatant assessed as inhibition of LIF mRNA expression at 20 uM and measured after 48 hrs by qRT-PCR analysis. The following applies: time 72.0 hrs. It is filed as functional, cell-based.
Data set [40] concerns MNT-1. Put plainly: Anti-melanogenic activity against human MNT-1 cells cocultured with 24 hrs compound pretreated human HaCaT cells supernatant assessed as decrease in melanin content at 20 uM and measured after 48 hrs by Fontana-Masson staining based microscopic analysis. The following applies: time 72.0 hrs. The class given is functional, cell-based.
The subject of data set [41] is MNT-1. Put plainly: Anti-melanogenic activity against human MNT-1 cells cocultured with 24 hrs compound pretreated human HaCaT cells supernatant assessed as inhibition of LIF protein expression at 20 uM and measured after 48 hrs by Western blot analysis. The class given is functional, cell-based. The following applies: time 72.0 hrs.
Data set [42] relates to MNT-1. Put plainly: Anti-melanogenic activity against human MNT-1 cells cocultured with 24 hrs compound pretreated human fibroblast cells supernatant assessed as inhibition of SCF mRNA expression at 20 uM and measured after 48 hrs by qRT-PCR analysis. The class given is functional, cell-based. The following applies: time 72.0 hrs.
Data set [43] concerns MNT-1. Put plainly: Anti-melanogenic activity against human MNT-1 cells cocultured with 24 hrs compound pretreated human fibroblast cells supernatant assessed as inhibition of LIF mRNA expression at 20 uM and measured after 48 hrs by qRT-PCR analysis. The class given is functional, cell-based. The following applies: time 72.0 hrs.
The test system of data set [44] is B16-F10. Put plainly: Anti-melanogenic activity against mouse B16-F10 cells at 200 nM. It is filed as functional, cell-based.

The IC50 is the concentration needed to halve the response being measured.

For the compound `O=C1C=CC(=C(c2ccc(O)cc2)c2c(-c3ccc(O)cc3)ccc(CO)c2C#Cc2ccc(O)cc2)C=C1`, the outcome in data set [1], in data set [2], in data set [4], in data set [5], in data set [6] and in data set [8] was Active. Also, the outcome in [9], in data set [10], in data set [11], in data set [12], in [13] and in data set [14] was Active. In addition, the outcome in data set [15], in data set [16], in [17], in [19], in data set [22] and in [25] was Active. For the same compound, the outcome in [28], in [29], in data set [30], in [31] and in data set [32] was Active. The Activity entry in [3], in [20], in [23], in data set [24] and in [26] was “Non-Toxic” throughout. Also, the inhibition result in data set [7], in data set [18] and in data set [21] was “Active” throughout. Moreover, the IC50 in [27] is 9.24 µM.
Turning to `NC(=S)Nc1ccccc1`, the inhibition entry in data set [33] was “Active”.
`COc1ccc(-c2cc(=O)c3c(OC)c(OC)c(OC)c(OC)c3o2)cc1OC`: the outcome in data set [34], in data set [35], in [36], in data set [37], in data set [38] and in data set [39] was Active. The outcome in data set [40], in [41], in data set [42] and in data set [43] was Active.
Take `O=c1cc(CO)occ1O`: in [44], the outcome was Active.
